In patent US20220242846A1, “ISOINDOLINONE COMPOUNDS” (Monte Rosa Therapeutics AG, priority 2019, published 2022):
Where two headings read alike, the source gives them in different places.

How the values were obtained:
[1] = biological target: T1, Full length wild-type cereblon CRBN (Homo sapiens, UniProt Q96SW2); assay: Fluorescence polarization (FP) assay indicating cereblon binding; conditions: CRBN 80.0 nM, fluorescent probe 5 nM, FP measured after 12 hours; read-out: rFP IC50
T1 construct: Full length wild-type cereblon CRBN (80.0 nM, 10 μL) was incubated in assay buffer
T1 sequence (Q96SW2 whole entry): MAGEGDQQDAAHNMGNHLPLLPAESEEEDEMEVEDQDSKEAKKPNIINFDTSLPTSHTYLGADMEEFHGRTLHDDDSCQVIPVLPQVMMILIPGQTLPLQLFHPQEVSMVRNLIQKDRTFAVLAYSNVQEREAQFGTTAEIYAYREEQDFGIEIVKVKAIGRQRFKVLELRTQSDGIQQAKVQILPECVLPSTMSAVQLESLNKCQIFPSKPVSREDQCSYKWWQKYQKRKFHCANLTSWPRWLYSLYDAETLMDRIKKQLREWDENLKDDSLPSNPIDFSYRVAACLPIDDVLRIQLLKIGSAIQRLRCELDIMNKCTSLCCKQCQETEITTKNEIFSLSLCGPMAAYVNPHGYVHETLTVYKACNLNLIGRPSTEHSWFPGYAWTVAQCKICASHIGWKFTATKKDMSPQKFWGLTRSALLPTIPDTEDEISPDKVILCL
Summary of the method: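 Full-length wild-type human CRBN (80.0 nM) preincubated 30 min at room temperature with compound (12-point curve, 300-0.937 or 3000-9.3 nM) in HEPES pH 8.0, NaCl, TCEP, Tween 20. Thalidomide-based Cy5-type probe then added at 5 nM final; FP read after 12 h (ex 590, em 675 nm), normalized to DMSO, IC50 derived.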

GSPT1 = GSPT1 (Homo sapiens, UniProt P15170+Q96SW2); assay: Immunofluorescence assay for GSPT1 degradation in CAL-51 cells; type: cell-based; set-up: CAL-51 cells were purchased from DSMZ (cat. Number ACC302); endogenous in cells; host or cells: CAL-51 (DSMZ ACC302); conditions: compound treatment 6 hours
Sequence of GSPT1 (P15170 whole entry): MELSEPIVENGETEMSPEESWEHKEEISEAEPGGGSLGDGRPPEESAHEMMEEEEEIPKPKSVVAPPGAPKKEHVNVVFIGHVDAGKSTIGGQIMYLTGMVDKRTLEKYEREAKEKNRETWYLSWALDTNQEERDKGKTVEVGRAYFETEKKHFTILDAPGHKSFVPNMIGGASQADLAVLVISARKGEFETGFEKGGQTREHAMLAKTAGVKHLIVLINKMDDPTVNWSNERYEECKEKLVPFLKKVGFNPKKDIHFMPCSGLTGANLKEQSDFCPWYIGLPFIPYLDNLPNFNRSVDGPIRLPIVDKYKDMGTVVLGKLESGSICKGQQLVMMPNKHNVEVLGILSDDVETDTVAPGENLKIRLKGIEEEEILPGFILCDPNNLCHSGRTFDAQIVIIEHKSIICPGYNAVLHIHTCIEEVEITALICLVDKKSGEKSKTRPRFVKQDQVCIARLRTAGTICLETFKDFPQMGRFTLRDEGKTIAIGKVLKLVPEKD
Sequence of GSPT1 (Q96SW2 whole entry): as the sequence (Q96SW2 whole entry) above
Sequence of GSPT1 (Q16531 2-1140 partner limits assumed): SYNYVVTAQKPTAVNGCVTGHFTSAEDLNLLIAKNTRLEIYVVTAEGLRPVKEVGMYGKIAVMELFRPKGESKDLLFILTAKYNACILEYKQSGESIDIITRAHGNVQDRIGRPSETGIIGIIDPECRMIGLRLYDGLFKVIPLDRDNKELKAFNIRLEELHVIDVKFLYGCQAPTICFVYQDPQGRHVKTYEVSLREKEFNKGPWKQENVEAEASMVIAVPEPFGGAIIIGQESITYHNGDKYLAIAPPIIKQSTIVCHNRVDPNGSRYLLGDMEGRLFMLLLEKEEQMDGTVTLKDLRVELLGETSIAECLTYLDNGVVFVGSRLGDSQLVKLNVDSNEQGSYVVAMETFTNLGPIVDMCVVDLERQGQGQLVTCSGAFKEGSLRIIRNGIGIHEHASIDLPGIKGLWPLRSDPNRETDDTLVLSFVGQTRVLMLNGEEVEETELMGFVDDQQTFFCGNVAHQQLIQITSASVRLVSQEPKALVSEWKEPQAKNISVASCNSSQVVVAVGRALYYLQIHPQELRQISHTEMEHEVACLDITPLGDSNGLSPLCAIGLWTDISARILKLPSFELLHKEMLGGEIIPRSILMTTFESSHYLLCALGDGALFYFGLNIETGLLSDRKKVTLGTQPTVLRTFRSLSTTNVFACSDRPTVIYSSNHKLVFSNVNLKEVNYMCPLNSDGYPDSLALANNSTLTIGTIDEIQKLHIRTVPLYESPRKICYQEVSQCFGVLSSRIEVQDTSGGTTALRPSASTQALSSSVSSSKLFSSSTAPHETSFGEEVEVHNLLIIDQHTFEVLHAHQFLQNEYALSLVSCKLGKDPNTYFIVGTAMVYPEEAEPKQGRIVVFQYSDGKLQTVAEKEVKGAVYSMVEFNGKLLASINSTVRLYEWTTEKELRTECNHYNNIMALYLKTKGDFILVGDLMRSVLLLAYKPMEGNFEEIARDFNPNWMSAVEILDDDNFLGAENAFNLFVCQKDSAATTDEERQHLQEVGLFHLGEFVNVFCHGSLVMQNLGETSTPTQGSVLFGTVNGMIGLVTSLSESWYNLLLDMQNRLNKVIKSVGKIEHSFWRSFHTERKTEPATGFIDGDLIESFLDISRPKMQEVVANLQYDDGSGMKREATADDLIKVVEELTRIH
Summary of the method: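 CAL-51 cells on fibronectin-coated plates treated 6 h with compound (30 μM to 0.1 nM); fixed, stained with anti-GSPT1/Alexa-488, phalloidin and DAPI, imaged by high-content microscopy. Mean GSPT1 intensity per cell normalized to controls; DC50 by non-linear regression.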

[2] = system: Human mammary epithelial cells (HMEC) engineered to express EGFP alone (non myc); assay: 3D spheroid assay, non myc-HMEC (CellTiterGlo3D viability); type: cell-based; conditions: 120 h, 3D spheroids, 5 days with compound, read-out: Code: EC50 value in the non myc-HMEC assay
Description: (§1) 3D Spheroid Experiments—HMEC
(§2) Human mammary epithelial cells (HMEC) were engineered to express either c-myc tagged with EGFP or EGFP alone (non myc) (analogous but distinct from Kessler J D et al, Science. 2012 Jan. 20; 335(6066):348-53. doi: 10.1126/science.1212728; Hsu T Y et al, Nature. 2015 Sep. 17; 525(7569):384-8. doi: 10.1038/nature14985). The engineered cells were seeded at 1000 (myc) or 4000 (non myc) cells/well in a 384 ultra-low attachment plate in a total volume of 40 µL, HMEC cell culture media (DMEM/F12+10% HI-FBS+15 mM HEPES+0.5 ug/ml Hydrocortisone+10 ug/ml Insulin+20 ng/ml EGF). Plates were spun at 1200 rpm for 5 minutes at room temperature to ensure that cells have gathered in the middle of the well and incubated at 37° C. for 48 hrs before firing with compounds. On Day 2 (48 h post seeding) cells were imaged (brightfield and EGFP fluorescence) using the Celigo imaging cytometer prior to firing compounds. For primary screens, compounds were added at three concentrations (1.25, 10 and 30 uM) in a volume of 120 nL using the ECHO acoustic dispenser and spun at 2000 rpm for 2 minutes at room temperature before incubating at 37° C. for 5 days. […] On Day 7, prior to measuring cell viability using CellTiterGlo3D, cells were imaged (brightfield and EGFP fluorescence) on the Celigo imaging cytometer. The CellTiterGlo3D reagent is added at 30uL/well and incubated at room temperature for 30mins After 30mins of incubation, luminescence readings were recorded using the Perkin Elmer EnVision reader.

[3] = system: Human mammary epithelial cells (HMEC) engineered to express c-myc tagged with EGFP; assay: 3D spheroid assay, myc-HMEC (CellTiterGlo3D viability); type: cell-based
Description: as §1, §2

[4] = read-out: Code: activity for GSPT1 degradation (DC50)
[5] = Homo sapiens, HMEC, 120 h, 3D spheroids, 5 days with compound, read-out: Code: EC50 value in the myc-HMEC assay
[6] = myc-HMEC 3D spheroids (compounds with code D and E), 5 days, read-out: EC50

| IC50 [1] | DC50 (GSPT1; [4]) | DC50 (GSPT1; GSPT1 degradation, read-out: DC50) | Compound | EC50 [2] | EC50 [3, 5] | EC50 [3, 6] |
| --- | --- | --- | --- | --- | --- | --- |
| 434 nM | ≤ 100 nM | – | CC(C)(C)c1ccc(NC(=O)NCc2ccc3c(c2)C(=O)N(C2CCC(=O)NC2=O)C3)cc1 (stereo not drawn) [Compound 56] | > 10000 nM | ≤ 400 nM | 228 nM |
| 373 nM | > 300 nM | – | CC(C)c1ccc(NC(=O)NCc2ccc3c(c2)C(=O)N(C2CCC(=O)NC2=O)C3)cc1 (stereo not drawn) [Compound 57] | > 10000 nM | > 2000 nM | – |
| 540 nM | > 300 nM | – | O=C1CCC(N2Cc3ccc(CNC(=O)NCC4CCCCC4)cc3C2=O)C(=O)N1 (stereo not drawn) [Compound 58] | > 10000 nM | > 2000 nM | – |
| 373 nM | 100 to 300 nM | – | COc1ccc(NC(=O)NCc2ccc3c(c2)C(=O)N(C2CCC(=O)NC2=O)C3)cc1Cl (stereo not drawn) [Compound 59] | > 10000 nM | 400 to 2000 nM | 589 nM |
| 381 nM | ≤ 100 nM | – | Cc1cc(NC(=O)NCc2ccc3c(c2)C(=O)N(C2CCC(=O)NC2=O)C3)ccc1Cl (stereo not drawn) [Compound 61] | > 10000 nM | ≤ 400 nM | 92 nM |
| 441 nM | > 300 nM | – | Cc1ccc(F)cc1NC(=O)NCc1ccc2c(c1)C(=O)N(C1CCC(=O)NC1=O)C2 (stereo not drawn) [Compound 62] | > 10000 nM | > 2000 nM | – |
| 492 nM | > 300 nM | – | Cc1cccc(CNC(=O)NCc2ccc3c(c2)C(=O)N(C2CCC(=O)NC2=O)C3)c1 (stereo not drawn) [Compound 63] | > 10000 nM | > 2000 nM | – |
| 400 nM | > 300 nM | – | O=C1CCC(N2Cc3ccc(CNC(=O)NCCc4ccc(Cl)cc4)cc3C2=O)C(=O)N1 (stereo not drawn) [Compound 64] | > 10000 nM | > 2000 nM | – |
| 637 nM | > 300 nM | – | O=C1CCC(N2Cc3ccc(CNC(=O)NCc4ccc(C(F)(F)F)cc4)cc3C2=O)C(=O)N1 (stereo not drawn) [Compound 65] | > 10000 nM | > 2000 nM | – |
| 449 nM | > 300 nM | – | O=C1CCC(N2Cc3ccc(CNC(=O)Nc4ccccc4-c4ccccc4)cc3C2=O)C(=O)N1 (stereo not drawn) [Compound 66] | > 10000 nM | > 2000 nM | – |
| 284 nM | > 300 nM | – | Cc1ccc(F)c(NC(=O)NCc2ccc3c(c2)C(=O)N(C2CCC(=O)NC2=O)C3)c1 (stereo not drawn) [Compound 67] | > 10000 nM | > 2000 nM | – |
| 290 nM | 100 to 300 nM | 200 nM | Cc1ccc(NC(=O)NCc2ccc3c(c2)C(=O)N(C2CCC(=O)NC2=O)C3)cc1C (stereo not drawn) [Compound 68] | > 10000 nM | 400 to 2000 nM | 458 nM |
| 381 nM | > 300 nM | – | O=C1CCC(N2Cc3ccc(CNC(=O)Nc4cc(F)ccc4F)cc3C2=O)C(=O)N1 (stereo not drawn) [Compound 69] | > 10000 nM | > 2000 nM | – |
| 253 nM | > 300 nM | – | O=C1CCC(N2Cc3ccc(CNC(=O)NCCCc4ccccc4)cc3C2=O)C(=O)N1 (stereo not drawn) [Compound 70] | > 10000 nM | > 2000 nM | – |
| 333 nM | ≤ 100 nM | – | O=C1CCC(N2Cc3ccc(CNC(=O)Nc4ccc(-c5ccccc5)cc4)cc3C2=O)C(=O)N1 (stereo not drawn) [Compound 71] | > 10000 nM | ≤ 400 nM | 39 nM |
| 322 nM | > 300 nM | – | COCCNC(=O)NCc1ccc2c(c1)C(=O)N(C1CCC(=O)NC1=O)C2 (stereo not drawn) [Compound 72] | > 10000 nM | > 2000 nM | – |
| 211 nM | > 300 nM | – | N#Cc1cccc(NC(=O)NCc2ccc3c(c2)C(=O)N(C2CCC(=O)NC2=O)C3)c1 (stereo not drawn) [Compound 73] | > 10000 nM | > 2000 nM | – |
| 196 nM | > 300 nM | – | N#Cc1ccc(NC(=O)NCc2ccc3c(c2)C(=O)N(C2CCC(=O)NC2=O)C3)cc1 (stereo not drawn) [Compound 74] | > 10000 nM | > 2000 nM | – |
